Reference: patent US10105357B2, “Indication of antibiotic drugs for preparation of cancer inhibition pharmaceutical composition” (LAUNX BIOMEDICAL CO., LTD., priority 2014, dated 2018)
Structures can show the parent of a compound that is named as a salt. Where two headings read alike, the source gives them in different places.

What was measured:
Format in all cases: cell-based, human
cancer cell lines = assay: Cell viability analysis (WST-1) on cancer cell lines; settings: drug 10 μM, 72 hours, WST-1; Table 3
[1] = tested on: HI650 (Lung Adenocarcinoma); assay: Cell viability analysis, lung cancer HI650; settings: Homo sapiens
[2] = tested on: A549 (Lung Adenocarcinoma); assay: Cell viability analysis, lung cancer A549; settings: Homo sapiens
[3] = tested on: AGS (Gastric Adenocarcinoma); assay: Cell viability analysis, gastric cancer AGS; settings: Homo sapiens
[4] = tested on: MKN-45 (Gastric Adenocarcinoma); assay: Cell viability analysis, gastric cancer MKN-45; settings: Homo sapiens
[5] = tested on: HepG2 (Hepatocellular Carcinoma); assay: Cell viability analysis, hepatic cancer HepG2; settings: Homo sapiens
[6] = tested on: LoVo (Colorectal Adenocarcinoma); assay: Cell viability analysis, colon cancer LoVo; settings: Homo sapiens, LoVo
[7] = tested on: A375 (Amelanotic Melanoma); assay: Cell viability analysis, skin cancer A375; settings: Homo sapiens
[8] = tested on: HeLa (Cervix Adenocarcinoma); assay: Cell viability analysis, cervical cancer HeLa; settings: Homo sapiens, HeLa
[9] = tested on: TSGH-8301 (Urinary Bladder Carcinoma); assay: Cell viability analysis, bladder cancer TSGH-8301; settings: Homo sapiens
[10] = tested on: MCF7 (Mammary Gland, Adenocarcinoma); assay: Cell viability analysis, breast cancer MCF7; settings: Homo sapiens
[11] = tested on: HL-60 (Acute Promyelocytic Leukemia); assay: Cell viability analysis, leukemia HL-60; settings: Homo sapiens
[12] = tested on: PC3 (p53−) (Prostate Adenocarcinoma); assay: Cell viability analysis, prostate cancer PC3; settings: Homo sapiens, 72 h, read-out: cell viability (survival rate), PC3, drug 10 μM, 72 hours, WST-1, OD450 nm
[13] = NCI-H1650, 72 h, read-out: cell viability (survival rate), H1650, drug 10 μM, 72 hours, WST-1, OD450 nm
[14] = A549, 72 h, read-out: cell viability (survival rate), A549, drug 10 μM, 72 hours, WST-1, OD450 nm
[15] = 72 h, read-out: cell viability (survival rate), AGS, drug 10 μM, 72 hours, WST-1, OD450 nm
[16] = MKN-45, 72 h, read-out: cell viability (survival rate), MKN-45, drug 10 μM, 72 hours, WST-1, OD450 nm
[17] = HepG2, 72 h, read-out: cell viability (survival rate), HepG2, drug 10 μM, 72 hours, WST-1, OD450 nm
[18] = 72 h, read-out: cell viability (survival rate), LoVo, drug 10 μM, 72 hours, WST-1, OD450 nm
[19] = A-375, 72 h, read-out: cell viability (survival rate), A375, drug 10 μM, 72 hours, WST-1, OD450 nm
[20] = 72 h, read-out: cell viability (survival rate), HeLa, drug 10 μM, 72 hours, WST-1, OD450 nm
[21] = 72 h, read-out: cell viability (survival rate), TSGH, drug 10 μM, 72 hours, WST-1, OD450 nm
[22] = MCF7, 72 h, read-out: cell viability (survival rate), MCF7, drug 10 μM, 72 hours, WST-1, OD450 nm
[23] = HL-60, 72 h, read-out: cell viability (survival rate), HL-60, drug 10 μM, 72 hours, WST-1, OD450 nm

SMILES | inhibition effect on different cancer cell lines (cancer cell lines) | viability at 10 µM [1, 13] | viability at 10 µM [2, 14] | viability at 10 µM [3, 15] | viability at 10 µM [4, 16] | viability at 10 µM [5, 17] | viability at 10 µM [6, 18] | viability at 10 µM [7, 19] | viability at 10 µM [8, 20] | viability at 10 µM [9, 21] | viability at 10 µM [10, 22] | viability at 10 µM [11, 23] | viability at 10 µM [12] | further results
O=c1[nH]cnc2c1ncn2[C@H]1CC[C@@H](CO)O1 [Didanosine (Videx), Didanosine] | significant inhibition effect | 64.2% | 67.5% | 48.7% | 62% | 119% | 95.1% | 77.2% | 80.3% | 76.7% | 78.4% | 126% | – | –
C[C@]12CCC(=O)C=C1CC[C@@H]1[C@@H]2[C@@H](O)C[C@@]2(C)[C@H]1CC[C@]2(O)C(=O)CO [Hydrocortisone (Cortisol), Hydrocortisone] | significant inhibition effect | 66.1% | 73.6% | 77.5% | 81.3% | 109% | 83.3% | 87.6% | 86.1% | 125% | 76.9% | 105% | – | –
Nc1ccn([C@H]2CC[C@@H](CO)O2)c(=O)n1 [Zalcitabine] | significant inhibition effect | 86.4% | 66.3% | 69.1% | 70.4% | 96.9% | 91% | 83.5% | 89.2% | 79% | 52.7% | 119% | – | –
CCn1cc(C(=O)O)c(=O)c2ccc(C)nc21 [Nalidixic acid (NegGram), Nalidixic acid] | significant inhibition effect | 72% | 83.8% | 57.3% | 54.9% | 96.8% | 91.5% | 87.9% | 95.8% | 46.3% | 86% | 113% | – | –
Oc1ccc(C=Cc2cc(O)cc(O)c2)cc1 [Resveratrol] | significant inhibition effect | 54.6% | 72.5% | 47.9% | 91.8% | – | 83.2% | 53% | 108% | 85.3% | 71.8% | 76.4% | 75% | –
Nc1ccc(S(N)(=O)=O)cc1 [Sulfanilamide] | significant inhibition effect | 66.7% | 82.7% | 65.3% | 59.1% | – | 85% | 84.6% | 82.1% | 76.5% | 105% | 112% | 111% | –
Fc1ccc([C@@H]2CCNC[C@H]2COc2ccc3c(c2)OCO3)cc1 [Paroxetine HCl] | significant inhibition effect | 44.1% | 80.1% | 21.5% | 49.2% | – | – | 31.9% | 42.1% | 56.4% | 56.4% | 79.1% | 70.6% | –
CC(=O)OCC1=C(C(=O)O)N2C(=O)[C@@H](NC(=O)CSc3ccncc3)[C@H]2SC1 [Cephapirin Sodium] | significant inhibition effect | 76.2% | 57.7% | 79.8% | 69.1% | 79.8% | 92.8% | 50.2% | 69.2% | 78.2% | 49.5% | 84.3% | – | –
NC[C@@H]1O[C@H](O[C@H]2[C@@H](O)[C@H](O[C@@H]3[C@@H](O)[C@H](N)C[C@H](N)[C@H]3O[C@H]3O[C@H](CO)[C@@H](O)[C@H](O)[C@H]3N)O[C@@H]2CO)[C@H](N)[C@@H](O)[C@@H]1O [Paromomycin Sulfate] | significant inhibition effect | 99% | 78.2% | 80.2% | 92.1% | – | 67.1% | 91.4% | 96.2% | 106% | 112% | 87.1% | 146% | –
[H]/N=C(/N)NS(=O)(=O)c1ccc(N)cc1 [Sulfaguanidine] | significant inhibition effect | 95.6% | 82.2% | 84% | 83.5% | 96.1% | 78.9% | 145% | 113% | 107% | 92.6% | 99.1% | – | –
C[C@@H](c1ncncc1F)[C@](O)(Cn1cncn1)c1ccc(F)cc1F [Voriconazole] | significant inhibition effect | 102% | 82.9% | 86.1% | 104% | – | – | 102% | 92.6% | 53.9% | 90.1% | 94.3% | 97% | –
C=C(NC(=O)C(=C)NC(=O)c1csc(C2=N[C@@H]3c4csc(n4)[C@H]4NC(=O)c5csc(n5)[C@H]([C@](C)(O)[C@@H](C)O)NC(=O)[C@H]5CSC(=N5)/C(=C/C)NC(=O)[C@H]([C@@H](C)O)NC(=O)c5csc(n5)[C@]3(CC2)NC(=O)[C@H](C)NC(=O)C(=C)NC(=O)[C@H](C)NC(=O)[C@H]([C@@H](C)CC)N[C@@H]2C=Cc3c([C@H](C)O)cc(nc3[C@H]2O)C(=O)O[C@@H]4C)n1)C(N)=O [Thiostrepton] | significant inhibition effect | – | – | – | – | – | – | – | – | – | – | – | – | viability at 10 µM ([1]; NCI-H1650, drug 10 μM, 72 hours, WST-1, OD450 nm, read-out: cell viability (survival rate), H1650): 45.4%; viability at 10 µM ([2]; A549, drug 10 μM, 72 hours, WST-1, OD450 nm, read-out: cell viability (survival rate), A549): 62.2%; viability at 10 µM ([3]; drug 10 μM, 72 hours, WST-1, OD450 nm, read-out: cell viability (survival rate), AGS): 25.7%; viability at 10 µM ([4]; MKN-45, drug 10 μM, 72 hours, WST-1, OD450 nm, read-out: cell viability (survival rate), MKN-45): 56.7%; viability at 10 µM ([5]; HepG2, drug 10 μM, 72 hours, WST-1, OD450 nm, read-out: cell viability (survival rate), HepG2): 49.2%; viability at 10 µM ([6]; drug 10 μM, 72 hours, WST-1, OD450 nm, read-out: cell viability (survival rate), LoVo): 52.9%; viability at 10 µM ([7]; A-375, drug 10 μM, 72 hours, WST-1, OD450 nm, read-out: cell viability (survival rate), A375): 27.6%; viability at 10 µM ([8]; drug 10 μM, 72 hours, WST-1, OD450 nm, read-out: cell viability (survival rate), HeLa): 37.8%; viability at 10 µM ([9]; drug 10 μM, 72 hours, WST-1, OD450 nm, read-out: cell viability (survival rate), TSGH): 20.1%; viability at 10 µM ([10]; MCF7, drug 10 μM, 72 hours, WST-1, OD450 nm, read-out: cell viability (survival rate), MCF7): 65%; viability at 10 µM ([11]; HL-60, drug 10 μM, 72 hours, WST-1, OD450 nm, read-out: cell viability (survival rate), HL-60): 37.8%
Cc1cc2nc3c(=O)[nH]c(=O)nc-3n(C[C@H](O)[C@H](O)[C@H](O)CO)c2cc1C [Riboflavin (Vitamin B2), Riboflavin] | significant inhibition effect | 51.1% | 67.6% | 74.9% | 87.3% | – | 83.3% | 89.7% | 128% | 79.7% | – | 90% | 79.4% | –
